test system: MSP1-19; assay: Epitope mapping: displacement of human IgG from peptide pins on exposure to MSP1-19; parameters: species or system Plasmodium falciparum; conditions: change in human IgG binding to peptide pin after 1 h exposure to 50 mg/mL MSP1-19 at room temperature; normalised to no-peptide pins and control peptide GLAQG
Procedure: A natural human IgG antibody library was tested for its ability to bind to peptides associated with the 19 kDa C-terminal region of merozoite surface protein 1 (MSP1-19) from Plasmodium falciparum (Kaslow et al., Mol. Biochem. Parasitology 63:283-289 (1994)). The 89 amino acid sequence from MSP1-19 was used for the epitope mapping experiment (see Table 1).
Briefly, a library of pentamer peptides was synthesized on polypropylene pins following the procedures described by Geysen et al., Proc. Natl. Acad. Sci. USA 81:3998-4002 (1984). These peptides represented all five-amino-acid stretches of MSP1-19 offset by one residue (Table 1). Peptide pins were precoated in phosphate buffered saline (PBS), pH 7.2, containing 2% BSA and 0.1% TWEEN 20 for one hour at room temperature. Five successive washes of the pins were carried out for five minutes each with agitation in PBS. Human IgG (Calbiochem; San Diego Calif.) was complexed to the peptides by incubating 0.1 mg/mL IgG in PBS at 4° C. for 30 hours. Unbound antibody was removed by washing as described above in 10 mM TRIS, pH 7.4 buffer containing 150 mM NaCl (TBS) using new microtiter plates for transferring the pins for each of the five washings. Anti-human IgG (goat) alkaline phosphatase conjugate was diluted to 0.1 mg specific antibody/mL in TBS and incubated with the peptide/antibody complex for one hour at room temperature before washing five times with TBS, as described above. The pins were then incubated in assay solution containing 10 mM TRIS, pH 8.0, 150 mM NaCl, 0.5 mM MgCl2, and 0.1 mM 4-methylumbelliferyl-phosphate for 30 minutes at room temperature in the dark. Following incubation, the fluorescence intensity of the assay solution was measured in a Spectromax Gemini plate reader (Molecular Devices; Sunnyvale Calif.)(ex 358 nm/em 450 nm).
The peptide/antibody complexes on the pins were washed five times in TBS, as described above, and incubated with 50 mg/mL MSP1-19 diluted in TBS for one hour at room temperature. The pins were washed in TBS as before and incubated in assay mixture for 30 minutes in the dark prior to measurement of the fluorescent intensity. Change in binding was determined using the equation: ΔF=(FMSP−Fb,MSP)/(F100,MSP−Fb,MSP)−(F0−Fb,0)/(F100,0−Fb,0) where FMSP and F0 are the fluorescence intensities of peptide containing pins after and before exposure to MSP1-19, respectively. Fb,MSP and Fb,0 are the fluorescence intensities of pins with no peptide after and before exposure to MSP1-19, respectively. F100,MSP and F100,0 are the fluorescence intensities of pins containing a control peptide, GLAQG (SEQ ID NO:90), after and prior to exposure to MSP1-19.

Substance	ΔF (%)
NPTCN [Peptide 46]	<5
NSGCF [Peptide 15]	<5
NYKQE [Peptide 33]	<5
PDSYP [Peptide 81]	9
PLFDG [Peptide 85]	16
PNPTC [Peptide 45]	<5
PQNSG [Peptide 13]	<5
PTCNE [Peptide 47]	<5
QCPQN [Peptide 11]	<5
QCVKK [Peptide 6]	<5
QEGDK [Peptide 36]	<5
QHQCV [Peptide 4]	<5
QNSGC [Peptide 14]	<5
REECK [Peptide 25]	<5
RHLDE [Peptide 20]	<5
SGCFR [Peptide 16]	<5
SGSNG [Peptide 67]	<5
SNGKK [Peptide 69]	<5
SQHQC [Peptide 3]	<5
SYPLF [Peptide 83]	13
TCECT [Peptide 75]	12
TCNEN [Peptide 48]	<5
TEEDS [Peptide 63]	<5
TKPDS [Peptide 79]	11
VENPN [Peptide 42]	<5
VKKQC [Peptide 8]	<5
YKQEG [Peptide 34]	<5
YPLFD [Peptide 84]	12

From US20060099648A1, “Compositions and methods for epitope mapping” (priority 2000, published 2006)
